{"source": "patent EP0173319A1", "about": "“Substituted arylsulfonyl guanidines” (BAYER AG, priority 1984, dated 1986)", "key": {"Testpflanzen [1]": {"tested_on": "Testpflanzen", "assay": "Post-emergence-Test (herbicidal)", "type": "in vivo", "settings": "test plants 5 - 15 cm high sprayed, damage rated after three weeks vs untreated control (0 % = keine Wirkung, 100 % = totale Vernichtung), rate or species not given", "text": "(§1) Lösungsmittel: 5 Gewichtsteile Aceton Emulgator: 1 Gewichtsteil Alkylarylpolyglykolether\n(§2) Zur Herstellung einer zweckmäßigen Wirkstoffzubereitung vermischt man 1 Gewichtsteil Wirkstoff mit der angegebenen Menge Lösungsmittel, gibt die angegebene Menge Emulgator zu und verdünnt das Konzentrat mit Wasser auf die gewünschte Konzentration.\nMit der Wirkstoffzubereitung spritzt man Testpflanzen, welche eine Höhe von 5 - 15 cm haben so, daß die jeweils gewünschten Wirkstoffmengen pro Flächeneinheit ausgebracht werden. Die Konzentration der Spritzbrühe wird so gewählt, daß in 2000 1 Wasser/ha die jeweils gewünschten Wirkstoffmengen ausgebracht werden. Nach drei Wochen wird der Schädigungsgrad der Pflanzen bonitiert in % Schädigung im Vergleich zur Entwicklung der unbehandelten Kontrolle.\nEs bedeuten: • 0 % = keine Wirkung (wie unbehandelte Kontrolle) 100 % = totale Vernichtung"}, "Testpflanzen [2]": {"tested_on": "Testpflanzen", "assay": "Pre-emergence-Test (herbicidal)", "type": "in vivo", "settings": "soil watered 24 h after sowing, damage rated after three weeks vs untreated control (0 % = keine Wirkung, 100 % = totale Vernichtung), rate or species not given", "text": "as §1, §2\nSamen der Testpflanzen werden in normalen Boden ausgesät und nach 24 Stunden mit der Wirkstoffzubereitung begossen. Dabei hält man die Wassermenge pro Flächeneinheit zweckmäßigerweise konstant. Die Wirkstoffkonzentration in der Zubereitung spielt keine Rolle, entscheidend ist nur die Aufwandmenge des Wirkstoffs pro Flächeneinheit. Nach drei Wochen wird der Schädigungsgrad der Pflanzen bonitiert in % Schädigung im Vergleich zur Entwicklung der unbehandelten Kontrolle. Es bedeuten: • 0 % = keine Wirkung (wie unbehandelte Kontrolle) 100 % = totale Vernichtung"}}, "data": [{"smiles": "CON(C(=NS(=O)(=O)c1ccccc1SC)Nc1nc(C)cc(C)n1)S(=O)(=O)c1ccccc1SC", "note": "[Beispiel 1, N'-(4,6-Dimethyl-pyrimidin-2-yl)-N''-methoxy-N'',N'''-bis-(2-methylthio-benzolsulfonyl)-guanidin]", "values": [{"measurement": "herbizide Wirksamkeit", "setting": "Testpflanzen [1]", "value": "sehr gute herbizide Wirksamkeit"}, {"measurement": "herbizide Wirksamkeit", "setting": "Testpflanzen [2]", "value": "sehr gute herbizide Wirksamkeit"}]}, {"smiles": "Cc1cc(C)nc(NC(=NS(=O)(=O)c2ccccc2S(=O)(=O)N(C)C)NN(C)C)n1", "note": "[Beispiel 2, N'-(4,6-Dimethyl-pyrimidin-2-yl)-N''-dimethylamino-N'''-(2-dimethylamino-sulfonyl-benzolsulfonyl)-guanidin]", "values": [{"measurement": "herbizide Wirksamkeit", "setting": "Testpflanzen [1]", "value": "sehr gute herbizide Wirksamkeit"}, {"measurement": "herbizide Wirksamkeit", "setting": "Testpflanzen [2]", "value": "sehr gute herbizide Wirksamkeit"}]}, {"smiles": "Cc1cc(C)nc(NC(=NS(=O)(=O)c2ccccc2S(=O)(=O)N(C)C)N(OCC(C)C)S(=O)(=O)c2ccccc2S(=O)(=O)N(C)C)n1.[K]", "note": "[Beispiel 4, N'-(4,6-Dimethyl-pyrimidin-2-yl)-N''-(2-methyl-propoxy)-N'',N'''-bis-(2-dimethylaminosulfonyl-benzolsulfonyl)-guanidin-Kaliumsalz]", "values": [{"measurement": "herbizide Wirksamkeit", "setting": "Testpflanzen [1]", "value": "sehr gute herbizide Wirksamkeit"}]}]}
